Laboratory results published in patent US5747006A, “Skin whitener composition containing acerola cherry fermentate” (Amway Corporation, priority 1997, dated 1998).

Test system: tyrosinase from mushroom
Assay: Inhibition of tyrosinase, absorbancy at 475 nm with tyrosine substrate
Format: biochemical
Conditions: for percent inhibition of the tyrosinase: pH 6.8 sodium acetate buffer, Example 1
Procedure: A buffer solution A containing 50 mM sodium acetate was prepared to yield a 6.8 pH.
A test tube was charged with 2.7 ml of buffer solution A and 0.4 ml. water to define a blank. Similarly, another test tube was charged with 2.7 ml. of the tyrosine solution, 0.3 ml of water, and 0.1 ml of the tyrosinase solution to define a reference. The absorbency of the reference was measured at 475 nm over a period of time with a spectrophotometer and the absorbancy was set to zero.
A test tube was charged with 2.7 ml of the tyrosine solution, 0.1 ml. of the tyrosinase solution and 0.02% of mercaptosuccinic acid together with 0.5% acerola cherry fermentate.

Row | Percent Inhibition (0.5 hours) (0.5 hours, Table 1) | Percent Inhibition (24 hours) (24 hours, Table 1) | percent inhibition of the tyrosinase (0.5 hours) | percent inhibition of the tyrosinase (24 hours) | Structure (SMILES)
1 | 91 | 92 | – | – | O=c1cc(CO)occ1O [Comparative Example 2, kojic acid]
2 | – | – | 95% | 77% | O=C(O)CC(S)C(=O)O (stereo not shown) [compound 1, mercaptosuccinic acid]
